Reference: US12077503B2, “Substituted cyclic amides and their use as herbicides” (FMC CORPORATION, priority 2015, dated 2024)

Experiments:
Experiment in all cases: Test E preemergence
Type in all cases: in vivo
Settings in all cases: scale 0 to 100
Kochia (Kochia scoparia) = system: Kochia (Kochia scoparia)
In short: (§1)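 Seeds sown in silt loam treated preemergence, or plants 2 to 18 cm tall in peat-based potting medium treated postemergence, with test chemical in a non-phytotoxic solvent mixture containing surfactant. Kept in greenhouse 14 to 21 d, then visually rated against controls on a 0–100 scale (0 no effect, 100 complete control).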

[1] = system: Panicum, fall (fall Panicum, Panicum dichotomiflorum)
In short: as §1

[2] = system: beggarticks (hairy beggarticks, Bidens pilosa)
In short: as §1

corn (Zea mays) = system: corn (Zea mays)
In short: as §1

[3] = system: crabgrass, Brazil (Brazilian crabgrass, Digitaria horizontalis)
In short: as §1

[4] = system: crabgrass, large (large crabgrass, Digitaria sangumnalis)
In short: as §1

[5] = system: field bindweed (Convolvulus arvensis)
In short: as §1

[6] = system: foxtail, giant (giant foxtail, Setaria faberii)
In short: as §1

[7] = system: johnsongrass (Sorghum halepense)
In short: as §1

[8] = system: morningglory (Ipomoea coccinea)
In short: as §1

[9] = system: nightshade (eastern black nightshade, Solanum ptycanthum)
In short: as §1

[10] = system: nutsedge, yellow (yellow nutsedge, Cyperus esculentus)
In short: as §1

[11] = system: pigweed, palmer (palmer pigweed, Amaranthus palmeri)
In short: as §1

[12] = system: ragweed (common ragweed, Ambrosia elatior)
In short: as §1

[13] = system: ryegrass, Italian (Italian ryegrass, Lolium multiflorum)
In short: as §1

soybean (Glycine max) = system: soybean (Glycine max)
In short: as §1

[14] = system: surinam grass (Brachiaria decumbens)
In short: as §1

[15] = system: velvetleaf (Abutilon theophrasti)
In short: as §1

CN1C[C@H](c2ccc(F)c(F)c2)[C@@H](C(=O)Nc2ccccc2F)C1=O [Compound 596, (3S,4S)-4-(3,4-difluorophenyl)-N-(2-fluorophenyl)-1-methyl-2-oxo-3-pyrrolidinecarboxamide]
Plant response rating: Kochia (Kochia (Kochia scoparia); 31 g ai/ha): 0
Plant response rating: Kochia (Kochia (Kochia scoparia); 62 g ai/ha): 25
Plant response rating: Kochia (Kochia (Kochia scoparia); 125 g ai/ha): 80
Plant response rating: Kochia (Kochia (Kochia scoparia); 250 g ai/ha): 90
Plant response rating: Panicum, Fall ([1]; 31 g ai/ha): 0
Plant response rating: Panicum, Fall ([1]; 62 g ai/ha): 0
Plant response rating: Panicum, Fall ([1]; 125 g ai/ha): 0
Plant response rating: Panicum, Fall ([1]; 250 g ai/ha): 90
Plant response rating: Beggarticks ([2]; 31 g ai/ha): 0
Plant response rating: Beggarticks ([2]; 62 g ai/ha): 0
Plant response rating: Beggarticks ([2]; 125 g ai/ha): 0
Plant response rating: Beggarticks ([2]; 250 g ai/ha): 0
Plant response rating: Corn (corn (Zea mays); 31 g ai/ha): 0
Plant response rating: Corn (corn (Zea mays); 62 g ai/ha): 0
Plant response rating: Corn (corn (Zea mays); 125 g ai/ha): 0
Plant response rating: Corn (corn (Zea mays); 250 g ai/ha): 0
Plant response rating: Crabgrass, Brazil ([3]; 31 g ai/ha): 100
Plant response rating: Crabgrass, Brazil ([3]; 62 g ai/ha): 95
Plant response rating: Crabgrass, Brazil ([3]; 125 g ai/ha): 100
Plant response rating: Crabgrass, Brazil ([3]; 250 g ai/ha): 100
Plant response rating: Crabgrass, Large ([4]; 31 g ai/ha): 95
Plant response rating: Crabgrass, Large ([4]; 62 g ai/ha): 95
Plant response rating: Crabgrass, Large ([4]; 125 g ai/ha): 98
Plant response rating: Crabgrass, Large ([4]; 250 g ai/ha): 98
Plant response rating: Field Bindweed ([5]; 31 g ai/ha): 0
Plant response rating: Field Bindweed ([5]; 62 g ai/ha): 0
Plant response rating: Field Bindweed ([5]; 125 g ai/ha): 0
Plant response rating: Field Bindweed ([5]; 250 g ai/ha): 15
Plant response rating: Foxtail, Giant ([6]; 31 g ai/ha): 95
Plant response rating: Foxtail, Giant ([6]; 62 g ai/ha): 95
Plant response rating: Foxtail, Giant ([6]; 125 g ai/ha): 98
Plant response rating: Foxtail, Giant ([6]; 250 g ai/ha): 98
Plant response rating: Johnsongrass ([7]; 31 g ai/ha): 0
Plant response rating: Johnsongrass ([7]; 62 g ai/ha): 0
Plant response rating: Johnsongrass ([7]; 125 g ai/ha): 0
Plant response rating: Johnsongrass ([7]; 250 g ai/ha): 35
Plant response rating: Morningglory ([8]; 31 g ai/ha): 0
Plant response rating: Morningglory ([8]; 62 g ai/ha): 0
Plant response rating: Morningglory ([8]; 125 g ai/ha): 0
Plant response rating: Morningglory ([8]; 250 g ai/ha): 0
Plant response rating: Nightshade ([9]; 31 g ai/ha): 0
Plant response rating: Nightshade ([9]; 62 g ai/ha): 0
Plant response rating: Nightshade ([9]; 125 g ai/ha): 0
Plant response rating: Nightshade ([9]; 250 g ai/ha): 60
Plant response rating: Nutsedge, Yellow ([10]; 31 g ai/ha): 0
Plant response rating: Nutsedge, Yellow ([10]; 62 g ai/ha): 0
Plant response rating: Nutsedge, Yellow ([10]; 125 g ai/ha): 0
Plant response rating: Nutsedge, Yellow ([10]; 250 g ai/ha): 0
Plant response rating: Pigweed, Palmer ([11]; 31 g ai/ha): 0
Plant response rating: Pigweed, Palmer ([11]; 62 g ai/ha): 0
Plant response rating: Pigweed, Palmer ([11]; 125 g ai/ha): 0
Plant response rating: Pigweed, Palmer ([11]; 250 g ai/ha): 40
Plant response rating: Ragweed ([12]; 31 g ai/ha): 0
Plant response rating: Ragweed ([12]; 62 g ai/ha): 0
Plant response rating: Ragweed ([12]; 125 g ai/ha): 25
Plant response rating: Ragweed ([12]; 250 g ai/ha): 50
Plant response rating: Ryegrass, Italian ([13]; 31 g ai/ha): 0
Plant response rating: Ryegrass, Italian ([13]; 62 g ai/ha): 0
Plant response rating: Ryegrass, Italian ([13]; 125 g ai/ha): 35
Plant response rating: Ryegrass, Italian ([13]; 250 g ai/ha): 50
Plant response rating: Soybean (soybean (Glycine max); 31 g ai/ha): 0
Plant response rating: Soybean (soybean (Glycine max); 62 g ai/ha): 0
Plant response rating: Soybean (soybean (Glycine max); 125 g ai/ha): 0
Plant response rating: Soybean (soybean (Glycine max); 250 g ai/ha): 0
Plant response rating: Surinam Grass ([14]; 31 g ai/ha): 35
Plant response rating: Surinam Grass ([14]; 62 g ai/ha): 65
Plant response rating: Surinam Grass ([14]; 125 g ai/ha): 95
Plant response rating: Surinam Grass ([14]; 250 g ai/ha): 95
Plant response rating: Velvetleaf ([15]; 31 g ai/ha): 0
Plant response rating: Velvetleaf ([15]; 62 g ai/ha): 0
Plant response rating: Velvetleaf ([15]; 125 g ai/ha): 0
Plant response rating: Velvetleaf ([15]; 250 g ai/ha): 35
